Measured values reported in patent US20250064941A1, “SIGLEC LIGANDS, CONJUGATES, AND METHODS OF USE THEREOF” (Osprey Biopharmaceuticals, Inc., priority 2023, published 2025).

What was measured:
cynomolgus Siglec-2/CD22 = cynomolgus Siglec-2/CD22 (Macaca fascicularis, UniProt A0A2K5WCZ6); assay: biochemical; type: binding; details: SPR, steady-state analysis; read-out: Affinity cyno CD22
Method in brief: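 Compound binding measured by steady-state SPR analysis, 120 s dissociation, in HEPES-NaCl-Tween buffer pH 7.5 containing 1% DMSO, DMSO solvent-corrected. Surface: cyno CD22, sialic acids first stripped by SialoExo for 4 h at 37° C., then amine-coupled onto CM5.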

[1] = target: T1, human Siglec-2/CD22 protein (Homo sapiens, UniProt P20273); assay: SPR binding affinity to human CD22; details: steady-state analysis
T1 construct: purchased Acro Biosystems SI2-H82E3
T1 sequence (P20273 20-847): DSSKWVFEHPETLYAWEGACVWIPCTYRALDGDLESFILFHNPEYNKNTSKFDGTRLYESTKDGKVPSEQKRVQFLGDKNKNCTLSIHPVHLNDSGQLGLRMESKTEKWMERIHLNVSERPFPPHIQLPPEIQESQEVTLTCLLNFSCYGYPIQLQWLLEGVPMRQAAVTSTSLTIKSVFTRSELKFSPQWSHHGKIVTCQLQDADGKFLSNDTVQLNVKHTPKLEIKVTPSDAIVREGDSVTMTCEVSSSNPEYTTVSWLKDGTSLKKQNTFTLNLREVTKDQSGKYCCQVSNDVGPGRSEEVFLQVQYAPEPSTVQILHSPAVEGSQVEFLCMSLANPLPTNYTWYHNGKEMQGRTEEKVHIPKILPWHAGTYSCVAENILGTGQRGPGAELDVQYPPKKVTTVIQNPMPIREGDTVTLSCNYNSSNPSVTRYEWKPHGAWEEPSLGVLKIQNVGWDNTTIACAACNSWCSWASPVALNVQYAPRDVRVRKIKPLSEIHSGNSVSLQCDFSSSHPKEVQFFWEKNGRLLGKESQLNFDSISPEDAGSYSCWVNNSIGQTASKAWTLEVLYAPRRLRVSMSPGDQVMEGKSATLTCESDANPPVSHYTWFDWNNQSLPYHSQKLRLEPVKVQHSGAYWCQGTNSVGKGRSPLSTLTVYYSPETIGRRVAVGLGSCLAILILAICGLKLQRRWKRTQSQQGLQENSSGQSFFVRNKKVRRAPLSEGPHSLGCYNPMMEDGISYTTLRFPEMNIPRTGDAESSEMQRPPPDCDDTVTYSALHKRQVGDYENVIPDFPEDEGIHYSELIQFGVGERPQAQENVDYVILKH
Method in brief: (§1)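 Using a Biacore 8K, compounds were tested against biotinylated CD22 captured after sialidase treatment. The running buffer held 1% DMSO, corrected with a 0.5–2% DMSO series. Affinity was derived by steady-state analysis.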

[2] = target: T2, mouse Siglec-2-Fc-Avi (CD22) (Mus musculus, UniProt P35329); assay: SPR binding affinity to mouse CD22; details: steady-state analysis
T2 construct: made in house
T2 sequence (P35329 22-708 limits assumed): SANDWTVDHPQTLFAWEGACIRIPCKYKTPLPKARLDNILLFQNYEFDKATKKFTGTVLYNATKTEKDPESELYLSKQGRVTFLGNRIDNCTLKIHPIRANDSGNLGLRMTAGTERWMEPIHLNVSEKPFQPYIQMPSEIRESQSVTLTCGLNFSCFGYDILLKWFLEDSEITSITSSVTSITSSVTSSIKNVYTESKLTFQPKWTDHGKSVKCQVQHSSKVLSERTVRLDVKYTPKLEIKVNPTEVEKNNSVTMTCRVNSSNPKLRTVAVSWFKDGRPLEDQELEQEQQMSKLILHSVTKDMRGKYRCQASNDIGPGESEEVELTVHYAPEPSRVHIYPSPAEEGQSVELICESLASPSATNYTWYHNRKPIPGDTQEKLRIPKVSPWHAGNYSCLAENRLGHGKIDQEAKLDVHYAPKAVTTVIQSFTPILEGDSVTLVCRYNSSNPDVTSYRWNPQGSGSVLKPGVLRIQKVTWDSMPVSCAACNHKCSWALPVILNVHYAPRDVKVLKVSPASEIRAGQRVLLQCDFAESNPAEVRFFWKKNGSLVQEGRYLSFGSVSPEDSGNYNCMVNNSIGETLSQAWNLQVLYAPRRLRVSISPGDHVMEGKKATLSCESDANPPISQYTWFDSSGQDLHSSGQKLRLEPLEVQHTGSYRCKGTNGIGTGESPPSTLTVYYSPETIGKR
Method in brief: as §1

Sequence of cynomolgus Siglec-2/CD22 (A0A2K5WCZ6 entry or part of it): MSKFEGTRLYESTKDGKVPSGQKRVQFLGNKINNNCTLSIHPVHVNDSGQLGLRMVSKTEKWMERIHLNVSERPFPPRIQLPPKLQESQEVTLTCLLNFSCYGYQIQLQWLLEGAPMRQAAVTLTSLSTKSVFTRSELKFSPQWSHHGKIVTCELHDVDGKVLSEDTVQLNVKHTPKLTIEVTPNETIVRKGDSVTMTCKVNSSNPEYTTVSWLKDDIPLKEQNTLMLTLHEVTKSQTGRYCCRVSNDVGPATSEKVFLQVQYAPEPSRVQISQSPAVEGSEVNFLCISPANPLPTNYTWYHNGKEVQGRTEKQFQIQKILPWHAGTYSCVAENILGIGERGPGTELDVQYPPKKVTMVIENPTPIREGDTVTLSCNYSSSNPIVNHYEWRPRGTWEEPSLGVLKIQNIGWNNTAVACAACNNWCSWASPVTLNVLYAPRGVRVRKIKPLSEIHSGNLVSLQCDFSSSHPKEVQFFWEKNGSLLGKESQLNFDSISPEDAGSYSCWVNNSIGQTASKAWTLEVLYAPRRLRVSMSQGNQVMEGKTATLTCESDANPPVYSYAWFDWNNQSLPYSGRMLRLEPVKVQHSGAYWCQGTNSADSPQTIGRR

Compound	Kd (cynomolgus Siglec-2/CD22) [µM]	Kd [1] [µM]	Kd [2] [µM]
C#CCC(NC(=O)CCCO[C@]1(C(=O)O)C[C@H](O)[C@@H](NC(=O)CO)[C@H]([C@H](O)[C@H](O)CNC(=O)Cc2ccc(Cl)cc2)O1)C(=O)O (stereo partly drawn) [Compound 102, (2R,4S,5R,6R)-2-(4-((1-carboxybut-3-yn-1-yl)amino)-4-oxobutoxy)-6-((1R,2R)-3-(2-(4-chlorophenyl)acetamido)-1,2-dihydroxypropyl)-4-hydroxy-5-(2-hydroxyacetamido)tetrahydro-2H-pyran-2-carboxylic acid]	1 to 10	1 to 10	1 to 10
O=C(Cc1ccc(-c2ccc(O)cc2)cc1)NC[C@@H](O)[C@@H](O)[C@@H]1O[C@](C(=O)O)(n2cc(-c3ccccc3O)nn2)C[C@H](O)[C@H]1NC(=O)CO [Compound 54, (2R,4S,5R,6R)-6-((1R,2R)-1,2-dihydroxy-3-(2-(4′-hydroxy-[1,1′-biphenyl]-4-yl)acetamido)propyl)-4-hydroxy-5-(2-hydroxyacetamido)-2-(4-(2-hydroxyphenyl)-1H-1,2,3-triazol-1-yl)tetrahydro-2H-pyran-2-carboxylic acid]	1 to 10	< 1	> 10
C#CCOc1ccc(CO[C@]2(C(=O)O)C[C@H](O)[C@@H](NC(=O)CO)[C@H]([C@H](O)[C@H](O)CNC(=O)Cc3ccc(-c4ccc(O)cc4)cc3OC)O2)cc1 [Compound 51, (2R,4S,5R,6R)-6-((1R,2R)-1,2-dihydroxy-3-(2-(4′-hydroxy-3-methoxy-[1,1′-biphenyl]-4-yl)acetamido)propyl)-4-hydroxy-5-(2-hydroxyacetamido)-2-((4-(prop-2-yn-1-yloxy)benzyl)oxy)tetrahydro-2H-pyran-2-carboxylic acid]	1 to 10	< 1	< 1
C#CCOCCCCCCO[C@]1(C(=O)O)C[C@H](O)[C@@H](NC(=O)NCC(F)(F)F)[C@H]([C@H](O)[C@H](O)CNC(=O)Cc2ccc(Cl)cc2)O1 [Compound 193, (2R,4S,5R,6R)-6-((1R,2R)-3-(2-(4-chlorophenyl)acetamido)-1,2-dihydroxypropyl)-4-hydroxy-2-((6-(prop-2-yn-1-yloxy)hexyl)oxy)-5-(3-(2,2,2-trifluoroethyl)ureido)tetrahydro-2H-pyran-2-carboxylic acid]	1 to 10	1 to 10	1 to 10
C#CCCCCCCS[C@]1(C(=O)O)C[C@H](O)[C@@H](NC(=O)CO)[C@H]([C@H](O)[C@H](O)CNC(=O)Cc2cccc(O)c2)O1 [Compound 141, (2S,4S,5R,6R)-6-((1R,2R)-1,2-dihydroxy-3-(2-(3-hydroxyphenyl)acetamido)propyl)-4-hydroxy-5-(2-hydroxyacetamido)-2-(oct-7-yn-1-ylthio)tetrahydro-2H-pyran-2-carboxylic acid]	1 to 10	< 1	< 1

Next, values leading:

Kd (cynomolgus Siglec-2/CD22) [µM]	Kd [1] [µM]	Kd [2] [µM]	Compound
1 to 10	1 to 10	> 10	CC(=O)NCCOCCOCCOCCOCCC(=O)NCCCCCCO[C@]1(C(=O)O)C[C@H](O)[C@@H](NC(C)=O)[C@H]([C@H](O)[C@H](O)CNC(=O)c2cccc(Cl)c2)O1 [Compound 271, (2R,4S,5R,6R)-5-acetamido-6-((1R,2R)-3-(3-chlorobenzamido)-1,2-dihydroxypropyl)-2-((2,18-dioxo-6,9,12,15-tetraoxa-3,19-diazapentacosan-25-yl)oxy)-4-hydroxytetrahydro-2H-pyran-2-carboxylic acid]
> 10	> 10	> 10	C#CCOCCOCCO[C@]1(C(=O)O)C[C@H](O)[C@@H](NC(=O)CO)[C@H]([C@H](O)[C@H](O)CNC(=O)Cc2ccc(O)c(Cl)c2)O1 [Compound 197, (2R,4S,5R,6R)-6-((1R,2R)-3-(2-(3-chloro-4-hydroxyphenyl)acetamido)-1,2-dihydroxypropyl)-4-hydroxy-5-(2-hydroxyacetamido)-2-(2-(2-(prop-2-yn-1-yloxy)ethoxy)ethoxy)tetrahydro-2H-pyran-2-carboxylic acid]
